Patent publication US5891909A, “Amidinohydrazones as protease inhibitors” (3-Dimensional Pharmaceuticals, Inc., priority 1997, dated 1999)
Structures can show the parent of a compound that is named as a salt.

Biological target: T1, human α-thrombin (Homo sapiens, UniProt P00734)
T1 construct: Human α-thrombin, human factor Xa and human plasmin were obtained from Enzyme Research Laboratories; purchased Enzyme Research Laboratories (South Bend, Ind.)
Test: Thrombin inhibition, Ki determination (hydrolysis of N-succinyl-Ala-Ala-Pro-Arg-p-nitroanilide)
Format: biochemical
Settings: Table 1; pH 7.5, 37° C.; read-out: Thrombin Ki
Description: All buffer salts were obtained from Sigma Chemical Company (St. Louis, Mo.), and were of the highest purity available. The enzyme substrates, N-benzoyl-Phe-Val-Arg-p-nitroanilide (Sigma B7632), N-benzoyl-Ile-Glu-Gly-Arg-p-nitroanilide hydrochloride (Sigma B2291), N-p-Tosyl-Gly-Pro-Lys-p-nitroanilide (Sigma T6140), N-succinyl-Ala-Ala-Pro-Phe-p-nitroanilide (Sigma S7388) and N-CBZ-Val-Gly-Arg-p-nitroanilide (Sigma C7271) were obtained from Sigma.
Human α-thrombin, human factor Xa and human plasmin were obtained from Enzyme Research Laboratories (South Bend, Ind.). Bovine α-chymotrypsin (Sigma C4129), bovine trypsin (Sigma T8642) and human kidney cell urokinase (Sigma U5004) were obtained from Sigma. Human leukocyte elastase was obtained from Elastin Products (Pacific, Mo.).
All assays are based on the ability of the test compound to inhibit the enzyme catalyzed hydrolysis of a peptide p-nitroanilide substrate. […] The final concentrations for each of the substrates is listed below. In general, substrate concentrations are lower than the experimentally determined value for Km. Test compounds are prepared as a 1.0 mg/ml solution in DMSO. Dilutions are prepared in DMSO yielding 8 final concentrations encompassing a 200 fold concentration range. Enzyme solutions are prepared at the concentrations listed below in assay buffer.
Data corresponding to less than 10% of the total substrate hydrolysis were used in the calculations. The ratio of the velocity (rate of change in absorbance as a function of time) for a sample containing no test compound is divided by the velocity of a sample containing test compound, and is plotted as a function of test compound concentration. The data are fit to a linear regression, and the value of the slope of the line calculated. The inverse of the slope is the experimentally determined Ki value.
Thrombin activity was assessed as the ability to hydrolyze the substrate N-succinyl-Ala-Ala-Pro-Arg-p-nitroanilide.

SMILES | Ki
Cc1cc(OCCC=NNC(=N)N)cc(OS(=O)(=O)c2cc([N+](=O)[O-])ccc2C)c1 [Example 22, 2-[2-[5-Methyl-3-(2-methyl-5-nitrophenylsulfonyloxy)phenoxy]ethyl-1-methylene]hydrazinecarboximidamide nitrate] | 63.6 nM
Cc1cc(OCCC=NNC(=N)N)cc(OS(=O)(=O)c2cccc(Cl)c2Cl)c1 [Example 6, 2-[2-[3-(2,3-Dichlorophenylsulfonyloxy)-5-methylphenoxy]ethyl-1-methylene]hydrazinecarboximidamide nitrate] | 13.6 nM
Cc1cc(OCCC=NNC(=N)N)cc(OCc2ccccc2C(F)(F)F)c1 [Example 3, 2-[2-[5-methyl-3-(2-trifluoromethylbenzyloxy)phenoxy]ethyl-1-methylene]hydrazinecarboximidamide nitrate] | 465 nM
Cc1cc(OCCC=NNC(=N)N)cc(OS(=O)(=O)c2ccccc2C#N)c1 [Example 13, 2-[2-[3-(2-Cyanophenylsulfonyloxy)-5-methylphenoxy]ethyl-1-methylene]hydrazinecarboximidamide hydrochloride] | 14 nM
COc1ccc(Br)cc1S(=O)(=O)Oc1cc(C)cc(OCCC=NNC(=N)N)c1 [Example 9, 2-[2-[3-(5-Bromo-2-methoxyphenylsulfonyloxy)-5-methylphenoxy]ethyl-1-methylene]hydrazinecarboximidamide nitrate] | 9.4 nM
COc1ccc(Cl)cc1S(=O)(=O)Oc1cc(C)cc(OCCC=NNC(=N)NN)c1 [Example 27, 2-Amino-[2-[2-[3-(5-chloro-2-methoxyphenylsulfonyloxy)-5-methylphenoxy]ethyl-1-methylene]hydrazine]carboximidamine acetate] | 298 nM
COc1ccccc1S(=O)(=O)Oc1cc(C)cc(OCCCC=NNC(=N)N)c1 [Example 23, 2-[3-[3-(2-Methoxyphenylsulfonyloxy)-5-methylphenoxy]propyl-1-methylene]hydrazinecarboximidamide nitrate] | 1670 nM
Cc1cc(OCCC=NNC(=N)N)cc(OS(=O)(=O)c2cccc3cnccc23)c1 [Example 32, 2-[2-[3-(5-Isoquinolinylsulfonyloxy)-5-methylphenoxy]ethyl-1-methylene]hydrazinecarboximidamide nitrate] | 24.9 nM
Cc1cc(OCCC=NNC(=N)N)cc(OS(=O)(=O)c2ccccc2C(F)(F)F)c1 [Example 2, 2-[2-[5-Methyl-3-(2-trifluoromethylphenylsulfonyloxy)phenoxy]ethyl-1-methylene]hydrazinecarboximidamide nitrate] | 8.4 nM
Cc1cc(OCCC=NNC(=N)N)cc(OS(=O)(=O)c2cccc3ccccc23)c1 [Example 25, 2-[2-[5-Methyl-3-(1-naphthalenylsulfonyloxy)phenoxy]ethyl-1-methylene]hydrazinecarboximidamide nitrate] | 63.2 nM
Cc1cc(OCCC=NNC(=N)N)cc(OS(=O)(=O)c2ccccc2OC(F)(F)F)c1 [Example 10, 2-[2-[5-Methyl-3-(2-trifluoromethoxyphenylsulfonyloxy)phenoxy]ethyl-1-methylene]hydrazinecarboximidamide nitrate] | 17.2 nM
CCOC(=O)CCCCCN(c1cc(C)cc(OCCC=NNC(=N)N)c1)S(=O)(=O)c1ccccc1C(F)(F)F [Example 5, 2-[2-[(5-methyl-3-(N-(5-ethoxycarbonylpentyl)-N-(2-trifluoromethylphenylsulfonyl)amino)phenoxy]ethyl-1-methylene]hydrazinecarboximidamide nitrate] | 26.4 nM
Cc1cc(OCCC=NNC(=N)N)cc(OS(=O)(=O)c2cc(F)ccc2C)c1 [Example 24, 2-[2-[3-(5-Fluoro-2-methylphenylsulfonyloxy)-5-methylphenoxy]ethyl-1-methylene]hydrazinecarboximidamide nitrate] | 13.5 nM
COc1ccc(Cl)cc1S(=O)(=O)Oc1cc(C)cc(OCCC=NNC(=N)N)c1 [Example 18, 2-[2-[3-(5-Chloro-2-methoxyphenylsulfonyloxy)-5-methylphenoxy]ethyl-1-methylene]hydrazinecarboximidamide hydrochloride] | 4.7 nM
Cc1cc(OCCC=NNC(=N)N)cc(OS(=O)(=O)c2cccnc2)c1 [Example 34, 2-[2-[5-methyl-3-(3-pyridinylsulfonyloxy)phenoxy]ethyl-1-methylene]hydrazinecarboximidamide diacetate] | 56 nM
Cc1cc(OCCC=NNC(=N)N)cc(OS(=O)(=O)c2cc(C)ccc2C#N)c1 [Example 30, 2-[2-[3-(2-Cyano-5-methylphenylsulfonyloxy)-5-methylphenoxy]ethyl-1-methylene]hydrazinecarboximidamide nitrate] | 33.4 nM
Cc1cc(OCCC=NNC(=N)N)cc(OS(=O)(=O)c2cc(Cl)ccc2Cl)c1 [Example 7, 2-[2-[3-(2,5-Dichlorophenylsulfonyloxy)-5-methylphenoxy]ethyl-1-methylene]hydrazinecarboximidamide nitrate] | 14.9 nM
COc1cc(CCCC=NNC(=N)N)cc(OS(=O)(=O)c2ccccc2Cl)c1 [Example 4, 2-[3-[3-(2-chlorophenylsulfonyloxy)-5-methoxyphenyl]propyl-1-methylene]hydrazinecarboximidamide hydrochloride] | 1270 nM

Results, then the molecule that gave them:

Ki | SMILES
68 nM | Cc1cc(OCCC=NNC(=N)N)cc(OS(=O)(=O)c2cccc(C#N)c2)c1 [Example 36, 2-[2-[3-(3-Cyanophenylsulfonyloxy)-5-methylphenoxy]ethyl-1-methylene]hydrazinecarboximidamide nitrate]
76.2 nM | Cc1cc(OCCC=NNC(=N)N)cc(OS(=O)(=O)c2c(C)nn(C)c2Cl)c1 [Example 20, 2-[2-[3-(5-chloro-1,3-dimethylpyrazole-4-sulfonyloxy)-5-methylphenoxy]ethyl-1-methylene]hydrazinecarboximidamide acetate]
69.2 nM | Cc1cc(OCCC=NNC(=N)N)cc(N(CCCCc2ccccc2)S(=O)(=O)c2ccccc2C(F)(F)F)c1 [Example 31, 2-[2-[(3-Methyl-5-(N-(4-phenylbutyl)-N-(2-trifluoromethylphenylsulfonyl))amino)phenoxy]ethyl-1-methylene]hydrazinecarboximidamide acetate]
6.2 nM | Cc1cc(OCCC=NNC(=N)N)cc(OS(=O)(=O)c2cc(C)ccc2C)c1 [Example 17, 2-[2-[3-(2,5-Dimethylphenylsulfonyloxy)-5-methylphenoxy]ethyl-1-methylene]hydrazinecarboximidamide nitrate]
21.3 nM | COc1ccc(OC)c(S(=O)(=O)Oc2cc(C)cc(OCCC=NNC(=N)N)c2)c1 [Example 16, 2-[2-[3-(2,5-Dimethoxyphenylsulfonyloxy)-5-methylphenoxy]ethyl-1-methylene]hydrazinecarboximidamide nitrate]
31 nM | Cc1cc(OCCC=NNC(=N)N)cc(OS(=O)(=O)c2cccc(F)c2)c1 [Example 35, 2-[2-[3-(3-Fluorophenylsulfonyloxy)-5-methylphenoxy]ethyl-1-methylene]hydrazinecarboximidamide nitrate]
1540 nM | Cc1cc(OCCC=NNC(=N)N)cc(OS(=O)(=O)c2cc(C(F)(F)F)ccc2Cl)c1 [Example 26, 2-[2-[3-(2-Chloro-5-trifluoromethylphenylsulfonyloxy)-5-methylphenoxy]ethyl-1-methylene]hydrazinecarboximidamide nitrate]
29.6 nM | Cc1cc(OCCC=NNC(=N)N)cc(OS(=O)(=O)c2cccc3nsnc23)c1 [Example 11, 2-[2-[3-(Benzo-2,1,3-thiadiazole-4-sulfonyloxy)-5-methylphenoxy]ethyl-1-methylene]hydrazinecarboximidamide nitrate]
52 nM | Cc1cc(OCC2(C=NNC(=N)N)CC2)cc(OS(=O)(=O)c2ccccc2C#N)c1 [Example 39, 2-[[1-[3-(2-Cyanophenylsulfonyloxy)-5-methylphenoxy]-methyl]cyclopropyl-1-methylene]hydrazinecarboximidamide acetate]
8.9 nM | Cc1cc(OCCC=NNC(=N)N)cc(OS(=O)(=O)c2cccc(C)c2)c1 [Example 12, 2-[2-[5-Methyl-3-(3-methylphenylsulfonyloxy)phenoxy]ethyl-1-methylene]hydrazinecarboximidamide nitrate]
47.5 nM | COc1ccc(C)cc1S(=O)(=O)Oc1cc(C)cc(OCCC=NNC(=N)N)c1 [Example 14, 2-[2-[3-(2-Methoxy-5-methylphenylsulfonyloxy)-5-methylphenoxy]ethyl-1-methylene]hydrazinecarboximidamide nitrate]
6.4 nM | COc1ccccc1S(=O)(=O)Oc1cc(C)cc(OCCC=NNC(=N)N)c1 [Example 8, 2-[2-[3-(2-Methoxyphenylsulfonyloxy)-5-methylphenoxy]ethyl-1-methylene]hydrazinecarboximidamide acetate]
